Data taken from patent US4469634A, “Allyloxy- and allylthio-2,3,4,5-tetrahydro-1H-3-benzazepines” (SmithKline Beckman Corporation, priority 1982, dated 1984).
Structures can show the parent of a compound that is named as a salt. Where two headings read alike, the source gives them in different places.

Key:
alpha2-adrenoceptor = molecular target: T1, alpha2-adrenoceptor (Cavia porcellus, UniProt Q60474); test: prejunctional alpha2-antagonist activity in isolated superfused guinea pig left atrium (shift of clonidine concentration-response curve); type: cell-based
T1 construct: The left atrium is removed, dissected free of extraneous tissue and mounted in a 2 ml superfusion chamber; from tissue; host or cells: left atrium of male guinea pig (sympathetic nerve terminals)
T1 sequence (Q60474 1-464): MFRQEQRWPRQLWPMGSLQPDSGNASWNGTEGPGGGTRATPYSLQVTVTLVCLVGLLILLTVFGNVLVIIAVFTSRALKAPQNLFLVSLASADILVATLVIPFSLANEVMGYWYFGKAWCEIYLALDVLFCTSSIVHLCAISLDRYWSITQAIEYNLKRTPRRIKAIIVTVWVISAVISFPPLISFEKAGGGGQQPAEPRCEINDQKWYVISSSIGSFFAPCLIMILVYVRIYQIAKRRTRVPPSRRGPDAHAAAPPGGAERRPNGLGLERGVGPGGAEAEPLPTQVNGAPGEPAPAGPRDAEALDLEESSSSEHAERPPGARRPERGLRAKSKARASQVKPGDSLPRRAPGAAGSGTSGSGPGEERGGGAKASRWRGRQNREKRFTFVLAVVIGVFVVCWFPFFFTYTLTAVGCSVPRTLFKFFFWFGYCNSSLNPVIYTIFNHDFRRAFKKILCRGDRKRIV
Description: Briefly, the heart is removed from a pentobarbital-anesthetized male guinea pig. The left atrium is removed, dissected free of extraneous tissue and mounted in a 2 ml superfusion chamber. The tissue is paced at 60 pulse/minute and the sympathetic nerves excited at 6 minute intervals by field stimulation. The response to nerve stimulation is measured as the difference in contractile force between the basal contraction and peak contraction following a nerve stimulation. A concentration-response curve for clonidine (a known alpha2 -agonist) is prepared by administering increasing concentrations of clonidine following each successive stimulation. The tissue is, then, superfused with the alpha2 -antagonist to be tested for thirty minutes and the clonidine concentration-effect curve is repeated in the presence of antagonist. The receptor dissociation constant of the antagonist (KB) is defined as the antagonist concentration required to shift the log concentration-response curve of the agonist to the right by a factor of 2.
Pharmacol. 309 217-224 (1979).

platelet = platelet test (method not described); type: cell-based

## C=CCSc1ccc2c(c1)CCNCC2 [Example 1, 7-allylthio-2,3,4,5-tetrahydro-1H-3-benzazepine hydrochloride]
alpha2-adrenoceptor
  Kb: 380 nM

## C=CCOc1ccc(Cl)c2c1CCN(C)CC2 [Example 2, 9-allyloxy-6-chloro-3-methyl-2,3,4,5-tetrahydro-1H-3-benzazepine hydrochloride]
alpha2-adrenoceptor
  Kb: 320 nM
platelet
  EC50: 90 nM

## C=CCOc1cccc2c1CCN(C)CC2 [Example 5, 6-allyloxy-3-methyl-2,3,4,5-tetrahydro-1H-3-benzazepinehydrochloride]
alpha2-adrenoceptor; isolated superfused guinea pig left atrium, clonidine as agonist, antagonist superfused thirty minutes, read-out: KB, guinea pig atrium (receptor dissociation constant of the antagonist)
  Kb: 160 nM
